Experimental findings from publication PMC10547238, “Discovery of Potent Tetrazole Free Fatty Acid Receptor 2 Antagonists” (Journal of Medicinal Chemistry, 2023) are described below.

Values after ≈ are worked out from the molar mass of the structure shown.

One data set deals with T1, hFFA2 (Homo sapiens, UniProt O15552).
T1 construct: expressed in transfected cells; host or cells: Flp-In T-Rex 293 cells, doxycycline-induced
T1 sequence (O15552 1-330): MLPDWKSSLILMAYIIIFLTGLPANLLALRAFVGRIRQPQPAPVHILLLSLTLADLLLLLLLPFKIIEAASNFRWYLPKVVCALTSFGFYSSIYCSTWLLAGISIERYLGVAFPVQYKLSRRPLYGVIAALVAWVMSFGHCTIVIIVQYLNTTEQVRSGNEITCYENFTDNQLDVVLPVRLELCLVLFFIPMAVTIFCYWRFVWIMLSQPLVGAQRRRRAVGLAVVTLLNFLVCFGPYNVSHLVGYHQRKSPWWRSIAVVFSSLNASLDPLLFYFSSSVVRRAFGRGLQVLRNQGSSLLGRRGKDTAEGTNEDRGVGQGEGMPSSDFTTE
In words: cAMP assay, antagonist mode, Flp-In T-Rex 293 cells expressing hFFA2-eYFP. The format is cell-based. Particulars: for cAMP pIC50: hFFA2, antagonist mode, propionate at EC80, mean ± SEM, three or more experiments; for LLEcAMP: pIC50, cAMP – ClogP; for LLEcAMP-logD: pIC50, cAMP – logD7.4; for IC50: read-out: hFFA2 cAMP (pIC50) (converted). As for the experimental part:
(§1) The activity of the compounds on FFA2 was evaluated in two different functional antagonist assays, both using propionate at EC80 as the agonist. The GTPγS assay reflects receptor activation by directly assessing G protein recruitment, whereas the cAMP assay, performed in whole cells, reflects a physiologically relevant downstream second messenger.
The hFFA2-eYFP and hFFA3-eYFP Flp-In T-Rex 293 cell lines were maintained in Dulbecco’s modified Eagle mMedium (DMEM, ThermoFisher #11965092) supplemented with 10% (v/v) fetal bovine serum, 100 U/mL penicillin, 100 μg/mL streptomycin, 5 μg/mL blasticidin S, and 200 μg/mL hygromycin B and incubated at 37 °C and 5% CO2 in a humidified incubator. Cells were passaged at 70–80% confluency.
To determine the compound’s ability to activate or inhibit the Gi-coupled FFA2 or FFA3, intracellular cAMP concentrations were determined using Flp-In T-Rex293 cells induced to express hFFA2-eYFP or hFFA3-eYFP. Experiments were carried out using a homogeneous time-resolved FRET-based detection kit (CisBio, PerkinElmer #62AM9PEC) according to the manufacturer’s protocol. The day before the assay, 10,000 cells/well were plated in DMEM supplemented with penicillin/streptomycin (100 units/mL and […], respectively), 5 μg/mL blasticidin S, and 200 μg/mL hygromycin B in 96-well cell culture microplates (Greiner Bio-One) and induced to express hFFA2-eYFP or hFFA3-YFP with 100 ng/mL doxycycline.
In antagonist mode, the cells were pre-incubated for 20 min with antagonist test compounds in HBSS together with 50 μM IBMX at rt. Then, the cells were further incubated for 25 min at rt in HBSS with the agonist compound, sodium propionate at EC80 (51.4 μM for FFA2, 13.2 μM for FFA3), and 3 μM forskolin. Reactions were stopped, and the output was measured with an Envision plate reader using a time-resolved fluorescence protocol, measuring the light emission at 620 and 665 nm. All analyses were performed in triplicate and analyzed using GraphPad Prism (version 9).
In general terms: cAMP levels reflect the balance of adenylyl cyclase and phosphodiesterase activity.

The nature of data set [1]: Kinetic aqueous solubility. It counts as physicochemical. Conditions: phosphate buffer; kinetic solubility in PBS at pH 7.4 and 25 °C. As for the experimental part:
Twenty microliters of a 10 mM compound stock solution in DMSO was added to an Eppendorf tube containing 980 μL of phosphate buffer (10 mM, pH = 7.4). The samples were incubated in an Eppendorf Thermomixer (25 °C, 800 rpm) for 24 h. Afterward, the samples were centrifuged for 5 min at 11,000 rpm and the supernatant was filtered (0.2 μm PTFE membrane) before analysis by HPLC. Each compound was analyzed in duplicate. The solubility was calculated from the peak area relative to the reference samples (200 μM in MeOH/MilliQ H2O, 60/40, v/v).

A further data set can be described thus: Microsomal stability. It counts as in vitro ADME, mouse. Here is the method: The assay was performed in duplicates essentially as described previously,[58] using male CD1 mouse liver microsomes (Thermo Fischer Scientific, 20 mg/mL), NADPH-regenerating agent Solution A and Solution B (Promega), potassium phosphate buffer (100 mM, pH 7.4), and test compounds (1 mM, diluted from 10 mM DMSO stock in the buffer). The samples were analyzed in an Agilent 6130 Mass Spectrometer instrument using electron spray ionization (ESI) coupled to an Agilent 1200 HPLC system (ESI-LCMS) with a C18 reverse phase column (Zorbax Eclipse XBD-C18, 4.6 mm × 50 mm) using a linear gradient of the binary solvent system of 100% mobile phase A (water:MeCN:formic acid, 95:5:0.1 v/v%) to 100% mobile phase B (MeCN:formic acid, 100:0.1 v/v %) in 6 min, with a flow rate of 1 mL/min.
To a pre-warmed solution of potassium phosphate buffer (135.6 μL) in an Eppendorf tube at 37 °C were added Solution A (7.5 μL), Solution B (1.5 μL), microsomes (3.9 μL), and the test compound (1 mM, 1.5 μL, final concentration = 10 μM). The tube was briefly vortexed and incubated at 37 °C in a thermomixer. At 0, 15, 30, 45, and 60 min, 25 μL of each sample was transferred to an ice-cold solution containing an internal standard (5 μM in MeCN, 12.5 μL). The sample was briefly vortexed and centrifuged for 5 min at 10.000g. The supernatant (25 μL) was transferred to HPLC vial and analyzed by ESI-LCMS in single ion mode. The data was analyzed using GraphPad Prism (version 9).

The nature of data set [2]: Lipophilicity (logD7.4), octanol/PBS7.4 shake flask. It counts as physicochemical. Conditions: 1-octanol/PBS7.4, pH 7.4; mean of two independent experiments. Here is the method: The assay was performed in duplicates essentially as previously described.[58] A glass vial with a screw cap (8 mL) was charged with the test compound (40 μL, 10 mM in DMSO), PBS7.4 (0.01 M, 1980 μL), and 1-octanol (1980 μL). The vial was capped and sealed with a Parafilm and shaken at 700 rpm using an IKA KS 125 basic shaker for 24 h at 25 °C. The Parafilm was removed, and the sample was allowed to equilibrate for 1 h before analysis. One hundred microliters of the octanol phase was withdrawn and diluted 1:10 with MeOH (+0.1% TFA)/MilliQ water (4:1, v/v) and analyzed by HPLC. The interface was removed, and the PBS7.4 phase analyzed directly by HPLC. All analysis was performed in duplicates, and log D7.4 values were calculated from the peak areas (mAU·min) and adjusted for difference in injection volume and concentration-absorption effects from the solvents, using two calibration points per compound per solvent, and dilution of the octanol phase.

The target in a further data set is T2, human FFA2-eYFP (Homo sapiens, UniProt O15552).
T2 construct: expressed in transfected cells; host or cells: membranes of Flp-In T-Rex 293 cells induced to express the construct
T2 sequence (O15552 1-330): T1 sequence (O15552 1-330)
The data set can be described thus: [35S]GTPγS incorporation assay, membranes of Flp-In T-Rex 293 cells. The format is biochemical. Conditions: for GTPγS pIC50: hFFA2, propionate at EC80, mean ± SEM, three or more experiments; for LLEGTPγS: pIC50, GTPγS – ClogP. As for the experimental part: as §1
Functional activity of the compounds were tested in a [^35S]GTPγS incorporation assay using membranes of Flp-In T-Rex 293 cells induced to express human FFA2-eYFP. […] The reaction was initiated by addition of [^35S]GTPγS (100 nCi per reaction) containing 1 μM GDP and incubated at 30 °C for 60 min. The reaction was terminated by rapid vacuum filtration through GF/C glass fiber filter-bottom 96-well microplates (PerkinElmer Life Sciences, Beaconsfield, UK) using a UniFilter FilterMate Harvester (PerkinElmer). Unbound radioligands were removed from filters by three washes with ice-cold PBS. MicroScint-20 (PerkinElmer) was added to dried filters, and [^35S]GTPγS binding was quantified by liquid scintillation spectroscopy.

Setting [3] is: % recovered after 60 min, mouse liver microsomes.

What is called solubility is the dissolved amount per volume that the medium holds. A low value points to a poorly soluble substance. Usually logD stands for the decadic logarithm of the distribution of all forms, ionised or not, between an organic phase and buffer at a given pH. The low end stands for lower lipophilicity, the high end for higher lipophilicity. As for `O=C(Cc1cccc(Cl)c1)N[C@@H](Cc1ccc(C(F)(F)F)cc1)Cc1nnn[nH]1` [Compound 16e, (S)-N-(1-(1H-Tetrazol-5-yl)-3-(4-(trifluoromethyl)phenyl)propan-2-yl)-2-(3-chlorophenyl)acetamide], on hFFA2, the “cAMP pIC50” value was determined as 8.15 ± 0.05, the LLEcAMP is given as 4.87 and the LLEcAMP-logD is given as 6.35. In addition, on hFFA2 (supplementary CSV), the IC50 is 6.61 nM. For the same compound, the solubility at 24 h in data set [1] stood at 138 µM (≈ 58.5 µg/mL). This compound displayed a microsomal stability in “Microsomal stability” (setting [3]) of 92%. In the data set “Microsomal stability” (supplementary CSV), this compound yielded a microsomal stability of 92%. Further, the logD at 25 h in data set [2] amounted to 1.8 ± 0.09. For the same compound, at human FFA2-eYFP, the “GTPγS pIC50” value came out at 8.53 ± 0.19 and the LLEGTPγS is 5.25.

Take `O=C(Cc1cccc(I)c1)N[C@@H](Cc1ccc(C(F)(F)F)cc1)Cc1nnn[nH]1` [Compound 16h, (S)-N-(1-(1H-Tetrazol-5-yl)-3-(4-(trifluoromethyl)phenyl)propan-2-yl)-2-(3-iodophenyl)acetamide]: at hFFA2, the “cAMP pIC50” value was 8.26 ± 0.08 and the LLEcAMP is on record as 4.57. The IC50 at hFFA2 (supplementary CSV) is 6.03 nM. The amount in solution in data set [1] (solubility at 24 h) came to 81 µM (≈ 41.7 µg/mL). Moreover, at human FFA2-eYFP, the “GTPγS pIC50” value is 8.38 ± 0.05 and the LLEGTPγS is reported as 4.69.

For the compound `O=C(Cc1cccc(Br)c1)N[C@@H](Cc1ccc(C(F)(F)F)cc1)Cc1nnn[nH]1` [Compound 16g, (S)-N-(1-(1H-Tetrazol-5-yl)-3-(4-(trifluoromethyl)phenyl)propan-2-yl)-2-(3-bromophenyl)acetamide], on hFFA2, the “cAMP pIC50” value amounted to 8.21 ± 0.09 and the LLEcAMP came to 4.78. Further, the “hFFA2 cAMP (pIC50)” value on hFFA2 (supplementary CSV) is listed as 8.19 ± 0.19. The compound further yielded a solubility at 24 h in data set [1] of 121 µM (≈ 56.7 µg/mL). Also, on human FFA2-eYFP, the “GTPγS pIC50” value turned out to be 8.30 ± 0.21 and the LLEGTPγS is 4.87.

On to `Cc1cccc(CC(=O)N[C@@H](Cc2ccc(C(F)(F)F)cc2)Cc2nnn[nH]2)c1` [Compound 8, (S)-N-(1-(1H-Tetrazol-5-yl)-3-(4-(trifluoromethyl)phenyl)propan-2-yl)-2-(m-tolyl)acetamide], for which, on hFFA2, the “cAMP pIC50” value worked out at 8.30 ± 0.12, the LLEcAMP was 5.24 and the LLEcAMP-logD worked out at 7.04. The IC50 at hFFA2 (supplementary CSV) is 5.62 nM. In data set [1], the solubility at 24 h was found to be 163 µM (≈ 65.8 µg/mL). In addition, in the data set “Microsomal stability” (setting [3]), the microsomal stability was 89%. In “Microsomal stability” (supplementary CSV), this compound had a microsomal stability of 89%. In data set [2], this compound had a pH-dependent lipophilicity (logD) at 25 h of 1.26 ± 0.07. Besides, at human FFA2-eYFP, the “GTPγS pIC50” value was 8.07 ± 0.08 and the LLEGTPγS is 5.01. Further, the “increased potency over CATPB (3)” value at human FFA2-eYFP (vs 3) is on record as “more than 10 fold”. At human FFA2-eYFP (vs 4), the “increase in potency over TUG-1958 (4)” value worked out at 4 fold.

Turning to `O=C(Cc1cccnc1)N[C@@H](Cc1ccc(C(F)(F)F)cc1)Cc1nnn[nH]1` [Compound 16s, (S)-3-(2-((1-(1H-Tetrazol-5-yl)-3-(4-(trifluoromethyl)phenyl)propan-2-yl)amino)-2-oxoethyl)pyridin-1-ium 2,2,2-trifluoroacetate], the “decrease in potency compared to 16a” value at hFFA2 (cAMP assay) is 7 fold. On hFFA2, the “cAMP pIC50” value is listed as 6.89 ± 0.10 and the LLEcAMP came to 5.82. Also, on hFFA2 (supplementary CSV), the IC50 is 91.2 nM. The “decrease in potency compared to 16a” value at human FFA2-eYFP (GTPγS assay) came to 7 fold. Moreover, on human FFA2-eYFP, the “GTPγS pIC50” value stood at 7.29 ± 0.07 and the LLEGTPγS came out at 6.22.
